Laboratory results from patent US10377998B2, “CRISPR-CAS systems and methods for altering expression of gene products, structural information and inducible modular CAS enzymes” (The Broad Institute, Inc., priority 2013, dated 2019).

What was measured:
Factor VII = conditions: LNP siRNA systems containing these lipids, hepatocytes in vivo; cited from earlier work
[1] = Double nicking indel formation with sgRNA pairs; format: cell-based; conditions: substitution of Cas9n in double nicking, eukaryotic system
Description: Aspects of the invention relate to the expression of the gene product being decreased or a template polynucleotide being further introduced into the DNA molecule encoding the gene product or an intervening sequence being excised precisely by allowing the two 5′ overhangs to reanneal and ligate or the activity or function of the gene product being altered or the expression of the gene product being increased. In an embodiment of the invention, the gene product is a protein. Only sgRNA pairs creating 5′ overhangs with less than 8 bp overlap between the guide sequences (offset greater than −8 bp) were able to mediate detectable indel formation. […] Nonetheless, a pair of sgRNAs that will generate a 5′ overhang with Cas9n should in principle generate the corresponding 3′ overhang instead, and double nicking. […] Accordingly, in some embodiments, a recombination template is also provided. A recombination template may be a component of another vector as described herein, contained in a separate vector, or provided as a separate polynucleotide. In some embodiments, a recombination template is designed to serve as a template in homologous recombination, such as within or near a target sequence nicked or cleaved by a CRISPR enzyme as a part of a CRISPR complex. […]

In the case of “1,2-dilinoleyloxy-keto-N,N-dimethyl-3-aminopropane [DLinKDMA]”, the “gene silencing potency series” value (Factor VII) is given as “DLinKC2-DMA>DLinKDMA>DLinDMA>>DLinDAP”.

In the case of `CCCCC/C=C\C/C=C\CCCCCCCC(=O)OCC(CN(C)C)OC(=O)CCCCCCC/C=C\C/C=C\CCCCC` (centres unmarked) [DLinDAP, 1,2-dilineoyl-3-dimethylammonium-propane], the “gene silencing potency series” value (Factor VII) is given as “DLinKC2-DMA>DLinKDMA>DLinDMA>>DLinDAP”.

In the case of `CCCCC/C=C\C/C=C\CCCCCCCCOCC(CN(C)C)OCCCCCCCC/C=C\C/C=C\CCCCC` (centres unmarked) [DLinDMA, 1,2-dilinoleyloxy-3-N,N-dimethylaminopropane], the “gene silencing potency series” value (Factor VII) is given as “DLinKC2-DMA>DLinKDMA>DLinDMA>>DLinDAP”.

In the case of `CCCCC/C=C\C/C=C\CCCCCCCCC1(CCCCCCCC/C=C\C/C=C\CCCCC)OCC(CCN(C)C)O1` (centres unmarked) [DLinKC2-DMA, 1,2-dilinoleyl-4-(2-dimethylaminoethyl)-[1,3]-dioxolane], the “gene silencing potency series” value (Factor VII) is given as “DLinKC2-DMA>DLinKDMA>DLinDMA>>DLinDAP”.

For Cas9H840A: Cas9 with H840A mutation, the “indel formation with sgRNA pair” value [1] was “no indel formation is observed”.
